Laboratory results: PMC10613275 (Scientific Reports, 2023)
Like-named read-outs stand apart in the source and are kept apart here.

Experiments:
[1] = set-up: method as in PMID 32461162; conditions: cited from earlier work
[2] = test system: CHO-K1 cells (hprt gene); test: CHO/HPRT mutation assay; format: cell-based, Chinese hamster; conditions: for Mutagenicity result: 50 µM without, 500 µM with metabolic activation
Method: The test with metabolic activation was performed as described in the OECD protocol, the ASTM standard[23] and other protocols[30],[31] and publications. For the test, cryopreserved CHO-K1 cells after the mutant cleansing were used. Mutant cleansing was performed according to[30], i.e. cells were cultivated three days in HAT medium, one day in HT medium and then frozen.
One passage after the thawing, 1 × 10^6 cells were seeded in 60 mm cultivation plates as described in[32]. […] The final concentration of the solvent, DMSO, was 1%. […] EMS at final concentration 2 mM as recommended in[31] served as a positive control. 3-MC at final concentration […][22] served as a positive control for metabolic activation. 1% DMSO was used as a VC. Sole cultivation medium served as a negative control (NC). After 4 h, the medium with tested substances was removed, plates were washed with PBS and fresh medium with 10% FBS was added.
During the expression period (1 week), the cells on all 60 mm plates were passaged once. On day 8, cells were trypsinized, resuspended, counted and 2 × 10^5 cells of each plate were seeded on 60 mm plates in triplicates in the presence of a selective agents, 6-TG (30 µM) as described in[32]. […] 300 cells without the selective agent were seeded in a parallel to evaluate plating efficiency (PE). On day 15, the plates were washed with PBS, cells were fixed with ice cold methanol for 10 min and stained with 0.05% crystal violet in water for 30 min[33]. After washing with water, formed colonies were counted using Schuett Count (Schuett-biotec, Göttingen, Germany). Calculations were done as described in[29]. PE was calculated according to a general Eq. 1. Particular PE at selective conditions was calculated according to Eq. 2. Particular PE at non-selective conditions was calculated according to Eq. 3. Mutation frequency (MF) was calculated according to Eq. 4.1 PE=numberofcoloniesformed/numberofcellsplated 2 PEselective=numberofmutantcoloniesNMC/200,000 3 PEnon-selective=numberofcoloniesformed/300 4 MF=PEselectiveconditions/PEnon-selectiveconditions

SMILES: CC(C=O)Cc1ccc(C(C)(C)C)cc1 (stereo not shown) [Lilial, 3-(4-(tert-butyl)phenyl)-2-methylpropanal]
- Dermal absorption value ([1]; hydroalcoholic-based fragrances and deodorant/antiperspirant products ref 3): 13.5%
- Dermal absorption value ([1]; oil-in-water-based products ref 3): 8.9%
- Dermal absorption value ([1]; water-in-oil-based products ref 3): 10.5%
- Mutagenicity result [2]: Non mutagenic
- Mutagenicity result ([2]; listed as lilial): not mutagenic
- MF (/10^6) mutation frequency ([2]; Table 3, without activation, lilial 50 µM, EMS 240 µg/ml (2 mM), 4 h): 9 ± 4 /10^6
- NMC (number of mutant colonies) ([2]; Table 4, With S9, lilial 500 µM, 3MC 2 µg/ml): 1 ± 1
